Measured values taken from patent publication US9334257B2, “Methods of purifying and identifying the presence of and levels of procyanidin oligomeric compounds” (The Hershey Company, priority 2012, dated 2016).

Experiment: Partition coefficient of cocoa procyanidin oligomers in the CPC biphasic solvent system
Format: physicochemical
Conditions: typical CPC runs as described; biphasic ethyl acetate:ethanol:water (6:1:5), ascending mode; unfermented cocoa bean sample of 8.5 grams
Protocol: A sample is mixed with water and prepared for FCPC with a KROMATON device and rotor. Columns are prepared with biphasic solvent mixture of ethyl acetate:ethanol:water at 6:1:5 ratio. The solvent used can be modified from this ratio by calculating the partition coefficients and comparing to that of the ethyl acetate:ethanol:water example. The FCPC is run in ascending mode for purifying procyanidins, so that the mobile phase is the upper phase in the resting columns.
These quantities are isolated from an unfermented cocoa bean sample of 8.5 grams. In comparison, with a diol HPLC column, 150×30 mm, injecting about 270 mg of the same sample per run yields only about 25 mg of DP2-4 and less than 1 mg of DP11-12. Clearly, the CPC methods of the invention provide commercially viable methods for producing usable quantities of a range of procyanidin oligomers, especially from cocoa sources.

Compound	Partition coefficient
Oc1cc(O)c2c(c1)O[C@H](c1ccc(O)c(O)c1)[C@H](O)C2 [epicatechin]	0.84
Oc1cc(O)c2c(c1)O[C@H](c1ccc(O)c(O)c1)[C@H](O)[C@H]2c1c(O)cc(O)c2c1O[C@H](c1ccc(O)c(O)c1)[C@H](O)C2 [procyanidin B2]	0.63
Oc1cc(O)c2c(c1)O[C@H](c1ccc(O)c(O)c1)[C@H](O)[C@H]2c1c(O)cc2c(c1O)C[C@@H](O)[C@@H](c1ccc(O)c(O)c1)O2 [procyanidin B5]	0.94
